The NIST ThermoML archive (doi:10.1021/je900888e)
Numbers after ± are expanded uncertainties.

Assay: mn = molality of the nth substance listed, in mol/kg
Conditions: 101 kPa, Liquid, m2 = 0

CCCCO [butan-1-ol] + CCCC[P+](CCCC)(CCCC)CCCC.[Br-]
Conditions	mass density [kg/m3]
288.15 K	813.269 ± 0.23
293.15 K	809.472 ± 0.23
298.15 K	805.659 ± 0.23
303.15 K	801.817 ± 0.23
308.15 K	797.945 ± 0.24
313.15 K	794.037 ± 0.24
323.15 K	786.081 ± 0.25
